Reference: US9402821B2, “Methods and pharmaceutical compositions for treatment of cystic fibrosis” (INSERM (Institut National de la sante et de la Recherche …, priority 2012, dated 2016)

Assays:
CFTR [1] = target: T1, CFTR (Homo sapiens, UniProt P13569); test: CFTR maturation by Western blot of membrane extracts; assay type: cell-based; parameters: expressed in transfected cells; details: for Ratio CFTR C/C + B (%): HeLa CFTR WT, Ctr. 65.1
Procedure: (§1) B. Chloride activity in HeLa Wt cells was measured by MQAE assay, after 3 h of treatment by NSAID (500 μM) or diluent. CFTR activity was expressed in rate of UFA/sec, calculated by difference between ((Ft−F0)/t) with CFTR induction and ((Ft−F0)/t) without CFTR induction. […] C. Primary culture of human nasal epithelial cell (HNEC) grown on Snapwell filters (air-liquid interface) were exposed basolaterally to sulindac (500 μM) or vehicle for 2 h and immediately mounted into a voltage-clamp system to bioelectric measurements. Short circuit current was measured with addition of amiloride to evaluated amiloride sensitive transport or with forskolin and IBMX for induced cAMP-dependent Cl secretion.
To study the CFTR protein present at the cell membrane, a protocol of purification by differential centrifugations was used. CFTR wt and delta F508 HeLa cells (2×10^5 cells/cm^2) were lysed with hypotonic lysis buffer (10 mM de KCl, 1 mM de MgCl2, 10 mM Hepes pH 7, 4 and protease inhibitor). Mechanic lysis of cells was realized with minimum 10 strokes of a 26G syringe. Samples were centrifuged 10 min at 3000 g to eliminate cellular fragments and nuclear fraction in the pellet. Then supernatant was centrifuged 45 min at 50 000 g. The pellets with cellular membrane were resolubilized in RIPA buffer.
Aliquots of membrane cell extracts (30 μg protein) were separated by 7% SDS-PAGE and transferred on PVDF membrane. The western blots were probed with mouse monoclonal antibodies specific for CFTR (MM13-4, Millipore) 2 h at room temperature.

CFTR [2] = target: T1, CFTR; test: Short circuit current, cAMP-dependent Cl secretion (forskolin + IBMX) in HNEC; assay type: cell-based; parameters: Nasal polyps were obtained from non-CF requiring surgery for their nasal polyposis; endogenous in cells; host or cells: primary human nasal epithelial cells (HNEC) from nasal polyps of non-CF patients; details: primary HNEC, air-liquid interface, 500 μM basolateral, 2 h, mean SEM of five filters
Procedure: as §1
Two cell models were used to the interface air-liquid model for ionic efflux assays by short circuit current and to dose the basolateral IL-8 secretion. Calu-3 are derived from lung adenocarcinoma and are able to polarized and express a high rate of endogenous CFTR. […] Transepithelial resistance and transepithelial potential difference were measured every 3 days using a microvoltmeter (World Precision Instruments, Astonbury, UK).
Cells were grown at 37° C. in a 5% CO2 incubator in DMEM with Glutamax (Invitrogen) and 10% fetal bovine serum (SVF). […] The effects of treatment in HNEC cultures on snapwell inserts were evaluated between days 10 and 16. […]

T1 sequence (P13569 whole entry): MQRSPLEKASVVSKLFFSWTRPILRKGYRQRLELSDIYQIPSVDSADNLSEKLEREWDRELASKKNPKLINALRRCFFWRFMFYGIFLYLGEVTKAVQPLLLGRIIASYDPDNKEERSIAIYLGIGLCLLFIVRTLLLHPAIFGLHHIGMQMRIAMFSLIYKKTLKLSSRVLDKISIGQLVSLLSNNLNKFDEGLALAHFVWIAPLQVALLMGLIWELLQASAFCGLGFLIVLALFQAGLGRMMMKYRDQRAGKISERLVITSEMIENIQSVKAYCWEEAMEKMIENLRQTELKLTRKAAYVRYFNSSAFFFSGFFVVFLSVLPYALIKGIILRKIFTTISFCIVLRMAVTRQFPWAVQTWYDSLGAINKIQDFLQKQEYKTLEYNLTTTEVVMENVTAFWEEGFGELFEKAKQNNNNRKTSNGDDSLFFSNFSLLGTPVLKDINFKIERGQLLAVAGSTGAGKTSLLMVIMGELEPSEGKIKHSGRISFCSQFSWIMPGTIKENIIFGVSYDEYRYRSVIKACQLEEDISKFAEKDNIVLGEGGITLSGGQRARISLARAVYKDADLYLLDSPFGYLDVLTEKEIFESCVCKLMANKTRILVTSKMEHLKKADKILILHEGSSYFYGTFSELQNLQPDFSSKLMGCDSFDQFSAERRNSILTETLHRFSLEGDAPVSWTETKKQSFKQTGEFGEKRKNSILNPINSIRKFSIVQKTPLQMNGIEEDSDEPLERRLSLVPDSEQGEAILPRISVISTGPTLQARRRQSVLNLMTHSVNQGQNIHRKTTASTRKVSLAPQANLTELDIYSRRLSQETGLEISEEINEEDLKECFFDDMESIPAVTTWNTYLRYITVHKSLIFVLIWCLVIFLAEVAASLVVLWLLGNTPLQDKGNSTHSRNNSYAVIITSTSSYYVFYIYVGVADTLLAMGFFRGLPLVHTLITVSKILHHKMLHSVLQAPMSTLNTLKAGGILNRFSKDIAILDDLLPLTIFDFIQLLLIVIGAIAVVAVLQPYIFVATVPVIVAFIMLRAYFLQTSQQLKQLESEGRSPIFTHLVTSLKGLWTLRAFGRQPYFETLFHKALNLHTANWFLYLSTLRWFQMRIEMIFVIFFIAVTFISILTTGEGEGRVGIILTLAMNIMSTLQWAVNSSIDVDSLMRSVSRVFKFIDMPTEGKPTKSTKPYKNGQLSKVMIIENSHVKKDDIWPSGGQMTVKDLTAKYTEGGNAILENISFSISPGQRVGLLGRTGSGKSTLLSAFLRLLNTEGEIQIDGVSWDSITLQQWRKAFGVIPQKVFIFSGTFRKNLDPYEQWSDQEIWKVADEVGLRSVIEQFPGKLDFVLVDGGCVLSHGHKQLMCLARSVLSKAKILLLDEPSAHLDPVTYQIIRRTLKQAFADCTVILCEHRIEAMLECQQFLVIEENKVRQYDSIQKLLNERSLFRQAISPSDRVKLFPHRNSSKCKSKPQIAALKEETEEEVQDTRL

## CC1=C(CC(=O)O)c2cc(F)ccc2/C1=C\c1ccc([S+](C)[O-])cc1 (centres unmarked) [sulindac, (Z)-5-fluoro-2-methyl-1-[p-(methylsulfinyl)benzylidene]-indene-3-acetic acid]
CFTR [1]; 250 μM
  Ratio CFTR C/C + B (%): 77.7%
CFTR [1]; 500 μM
  Ratio CFTR C/C + B (%): 81.5%
CFTR [1]; WT-CFTR HeLa cells, 500 μM
  mature form of CFTR (Western blot): significant increase of mature form of CFTR
CFTR [2]
  increase of CFTR activity (short circuit current, forskolin + IBMX): increase of CFTR activity
CFTR [2]; listed as Sulindac
  increase of CFTR activity (short circuit current, forskolin + IBMX): 46.35%
